Results on 20 compounds are retold here after US9029545B2, “Thienopyridine NOX2 inhibitors” (GlaxoSmithKline Intellectual Property Limited, priority 2009, dated 2015).

Where a name gives a salt, the structure may show the parent alone. Some results are limits rather than exact numbers.

The target of this test is T1, NOX2 in differentiated HL60 cells (Homo sapiens, UniProt P04839).
T1 construct: Differentiation of HL-60 cells to granulocytes increases NOX2 expression; endogenous in cells; host or cells: HL60 cells differentiated to neutrophil-like cells with 1.3% DMSO and stimulated with PMA
T1 sequence (P04839 1-570): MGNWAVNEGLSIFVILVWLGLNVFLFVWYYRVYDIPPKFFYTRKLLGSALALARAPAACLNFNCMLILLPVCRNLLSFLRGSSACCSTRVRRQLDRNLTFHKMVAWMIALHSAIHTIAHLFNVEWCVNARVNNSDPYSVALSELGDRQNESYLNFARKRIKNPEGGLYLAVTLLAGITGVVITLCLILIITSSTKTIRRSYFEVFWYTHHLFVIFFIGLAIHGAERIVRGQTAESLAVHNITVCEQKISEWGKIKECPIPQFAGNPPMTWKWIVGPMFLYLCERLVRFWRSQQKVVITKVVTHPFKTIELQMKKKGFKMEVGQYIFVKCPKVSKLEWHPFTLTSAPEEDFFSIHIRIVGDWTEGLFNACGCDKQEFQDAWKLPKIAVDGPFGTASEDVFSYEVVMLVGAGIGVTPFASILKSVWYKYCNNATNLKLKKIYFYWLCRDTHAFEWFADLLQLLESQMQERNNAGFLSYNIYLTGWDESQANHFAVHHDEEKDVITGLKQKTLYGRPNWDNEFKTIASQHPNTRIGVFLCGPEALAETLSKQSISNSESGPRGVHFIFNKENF
T1 sequence (P13498 1-195 partner): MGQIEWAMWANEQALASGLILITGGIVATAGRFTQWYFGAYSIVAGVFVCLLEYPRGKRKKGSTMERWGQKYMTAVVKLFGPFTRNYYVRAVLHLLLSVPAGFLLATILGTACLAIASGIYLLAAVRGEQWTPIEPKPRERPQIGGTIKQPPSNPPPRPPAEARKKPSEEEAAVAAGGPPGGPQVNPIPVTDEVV
Kind of test: HL60 cell-based assays (Assay 1 Oxyburst green BSA fluorescence, Assay 2 L-012 luminescence); result stated for at least one of them. The conditions noted are these: PMA-stimulated superoxide production in differentiated HL60 cells; at least one of Oxyburst and L012 assays; read-out: pIC50 in at least one of the HL60 assays (converted). The procedure:
In the cell-based assay, superoxide production by NOX2 was measured in differentiated HL60 cells, a human myelomonocytic leukemia cell line, using either Oxyburst (Assay1) or L012 (Assay2). Differentiation of HL-60 cells to granulocytes increases NOX2 expression. The phorbol 12-myristate 13-acetate (PMA) was used to stimulate the production of superoxide in HL60 cells by activating protein kinase C, which then activated the NADPH oxidase (NOX) enzymes. Inhibition of NOX2 enzyme was detected by the reversal of fluorescence signal (Assay1) or luminescence signal (Assay2). The control inhibitor used was diphenyleneiodonium chloride (DPI), a […] inhibitor capable of non-selectively inhibiting superoxide produced by NOX enzymes.
Assay 1: in this high-throughput screening assay, oxyburst green bovine serum albumin (BSA) was used to detect superoxide production in HL60 cells. Oxidation of Oxyburst green BSA by hydrogen peroxide as a result of the activation of NOX2 by PMA. Oxyburst green BSA fluorescence was measured at excitation 485 nm and emission 530 nm.
Assay 2: in this assay, a chemiluminescence probe, L-012 was used to detect superoxide production in HL60 cells. L-012 reacted with various types of reactive oxygen species generated by PMA-activated HL60 cells. Luminescence was measured using Tecan Infinite 500.
The HL60 cells were differentiated into neutrophil-like cells by adding 1.3% DMSO in the media for 3-7 days (Hua, J et al. (2000) Journal of Leukocyte Biology. 68:216-224). Iscove's Modified Dulbecco's Media (IMDM) with L-Glutamine and 25 mM HEPES buffer, Fetal Bovine Serum (FBS), Penicillin/Streptomycin, Oxyburst Green BSA, PBS, and HBSS buffer with Calcium Chloride and Magnesium Chloride were purchased from Invitrogen (Catalog #s: 12440-061, 10500-064, 15140-163, O-13291, 14190-250, and 14025-134 respectively). Phorbol 12-myristate 13-acetate (PMA), glucose, and CHAPS were purchased from Sigma (Catalog #s: 79346, D-9434, and C5070 respectively). Diphenyleneiodonium chloride (DPI) was purchased from Toronto Research Chemicals (Catalog #: D491500). L-012 was purchased from Wako Chemical (Catalog #: 120-04891). Dimethyl sulfoxide (DMSO) was purchased EMD Chemicals (VWR Catalog #: MX1456-1). Multidrop combi was purchased from Thermo Electron Corporation (Waltham, Mass., USA). Hummingbird nanoliter liquid dispenser was purchased from Genomics Solution (Ann Arbor, Mich., USA). 384 well low-volume plates and polypropylene 384 well clear plates were purchased from Greiner (Catalog #: 784076 and 781280 respectively). 96 well plate and 384 well plate black assay plates were purchased from Greiner (Catalog #: 655094 and 781098). 96 well plate for compound serial dilution was purchased from Corning (Catalog #: 9017). Acquest or Analyst fluorescence plate reader was purchased from LJL Biosystems/Molecular Devices (California, USA). Tecan Infinite 500 was purchased from Tecan (Switzerland).
Media for HL60 cells were kept at 4° C. for storage and were warmed to 37° C. in a water bath before use. The media components were IMDM media with 20% FBS and 1% Penicillin/Streptomycin.
Buffer to be used for compound addition and compound dilution consisted of HBSS buffer with 0.1% glucose.
Buffer to be used for cells consisted of HBSS buffer with 0.1% glucose and 0.01% CHAPS.
HL60 cells were thawed and resuspended in Cells media. The cells were centrifuged at 1200 rpm for 8 minutes. Media was aspirated and the cells were resuspended in Cells buffer. The cells were counted and resuspended to 1×10^6 cells/mL.
Full inhibition controls were dispensed using 100 nL/well of 1 mM DPI in DMSO to column 18 of a 384 well plate. Compounds were dispensed using 100 nL/well. Full activity controls were dispensed using 100 nL/well of 4 uM PMA in DMSO. Oxyburst Green BSA was added to cell solution at 10 ug/mL. Using the Multidrop, 10 uL cell solution was added to the entire assay plate. The assay plate was incubated at room temperature for 100 minutes. […]
For `COc1cccc(-c2c(C)sc3nc(C)cc(NS(=O)(=O)c4cccc(Cl)c4)c23)c1` [Example 1, 3-Chloro-N-{2,6-dimethyl-3-[3-(methyloxy)phenyl]thieno[2,3-b]pyridin-4-yl}-benzenesulfonamide], the IC50 was below 100 µM. Consider `COc1cccc(-c2c(C)sc3nc(C)cc(NS(=O)(=O)C4CCCCC4)c23)c1` [Example 8, N-{2,6-Dimethyl-3-[3-(methyloxy)phenyl]thieno[2,3-b]pyridin-4-yl}-cyclohexanesulfonamide], for which the IC50 is below 100 µM. The value for `COc1cccc(-c2c(C)sc3nc(C)cc(NS(=O)(=O)C4(Cl)CCN(C(=O)OCc5ccccc5)CC4)c23)c1` [Example 10, Phenylmethyl 4-chloro-4-[({2,6-dimethyl-3-[3-(methyloxy)phenyl]thieno[2,3-b]pyridin-4-yl}amino)sulfonyl]-1-piperidinecarboxylate] was below 100 µM; that for `COc1ccc(-c2c(C)sc3nc(C)cc(NS(=O)(=O)c4cccc(Cl)c4)c23)cc1` [Example 18, 3-Chloro-N-{2,6-dimethyl-3-[4-(methyloxy)phenyl]thieno[2,3-b]pyridin-4-yl}-benzenesulfonamide] was below 100 µM; that for `Cc1cc(NS(=O)(=O)c2cccc(Cl)c2)c2c(-c3ccc(Cl)c(Cl)c3)c(C)sc2n1` [Example 20, 3-Chloro-N-[3-(3,4-dichlorophenyl)-2,6-dimethylthieno[2,3-b]pyridin-4-yl]benzenesulfonamide] was below 100 µM.

Take `COC(=O)c1sc2nc(C)cc(NS(=O)(=O)c3cccc(Cl)c3)c2c1-c1cccc(OC)c1` [Example 36, Methyl 4-{[(3-chlorophenyl)sulfonyl]amino}-6-methyl-3-[3-(methyloxy)phenyl]thieno[2,3-b]pyridine-2-carboxylate]: the IC50 is below 100 µM. `COc1cccc(-c2c(-c3cccnc3)sc3nc(C)cc(NS(=O)(=O)c4cccc(Cl)c4)c23)c1` [Example 41, 3-Chloro-N-[6-methyl-3-[3-(methyloxy)phenyl]-2-(3-pyridinyl)thieno[2,3-b]pyridin-4-yl]-benzenesulfonamide]: the IC50 is below 100 µM. Then `COc1cccc(-c2c(-c3ccco3)sc3nc(C)cc(NS(=O)(=O)c4cccc(Cl)c4)c23)c1` [Example 42, 3-Chloro-N-{2-(2-furanyl)-6-methyl-3-[3-(methyloxy)phenyl]thieno[2,3-b]pyridin-4-yl}-benzenesulfonamide], with below 100 µM.

Turning to `COc1cccc(-c2c(-c3cccs3)sc3nc(C)cc(NS(=O)(=O)c4cccc(Cl)c4)c23)c1` [Example 44, 3-Chloro-N-[6-methyl-3-[3-(methyloxy)phenyl]-2-(2-thienyl)thieno[2,3-b]pyridin-4-yl]-benzenesulfonamide], the IC50 was below 100 µM. Then `COc1cccc(-c2c(C(C)C)sc3nc(C)cc(NS(=O)(=O)c4cccc(Cl)c4)c23)c1` [Example 45, 3-Chloro-N-{6-methyl-2-(1-methylethyl)-3-[3-(methyloxy)phenyl]thieno[2,3-b]pyridin-4-yl}-benzenesulfonamide trifluoroacetate], with below 100 µM. The value for `COc1ccc(-c2csc3nc(C)cc(NS(=O)(=O)c4cccc(Cl)c4)c23)cc1OC` [Example 47, N-{3-[3,4-Bis(methyloxy)phenyl]-6-methylthieno[2,3-b]pyridin-4-yl}-3-chlorobenzenesulfonamide trifluoroacetate] was below 100 µM; that for `CCc1sc2nc(C)cc(NS(=O)(=O)c3cccc(Cl)c3)c2c1-c1cccc(N(C)C)c1` [Example 48, 3-Chloro-N-{3-[3-(dimethylamino)phenyl]-2-ethyl-6-methylthieno[2,3-b]pyridin-4-yl}benzenesulfonamide trifluoroacetate] was below 100 µM; that for `COc1cccc(-c2c(C)sc3nc(C)cc(NS(=O)(=O)c4cncc(Br)c4)c23)c1` [Example 52, 5-Bromo-N-{2,6-dimethyl-3-[3-(methyloxy)phenyl]thieno[2,3-b]pyridin-4-yl}-3-pyridinesulfonamide trifluoroacetate] was below 100 µM. The value for `COc1cccc(-c2c(-c3ccoc3)sc3nc(C)cc(NS(=O)(=O)c4cccc(Cl)c4)c23)c1` [Example 57, 3-Chloro-N-{2-(3-furanyl)-6-methyl-3-[3-(methyloxy)phenyl]thieno[2,3-b]pyridin-4-yl}-benzenesulfonamide] was below 100 µM. Consider `COc1cccc(-c2c(-c3cn[nH]c3)sc3nc(C)cc(NS(=O)(=O)c4cccc(Cl)c4)c23)c1` [Example 58, 3-Chloro-N-[6-methyl-3-[3-(methyloxy)phenyl]-2-(1H-pyrazol-4-yl)thieno[2,3-b]pyridin-4-yl]benzenesulfonamide], for which the IC50 is below 100 µM.

As to `COc1cccc(-c2csc3nccc(NS(=O)(=O)c4cccc(Cl)c4)c23)c1` [Example 62, 3-Chloro-N-{3-[3-(methyloxy)phenyl]thieno[2,3-b]pyridin-4-yl}benzenesulfonamide], the IC50 was below 100 µM.

Regarding `Cc1cc(NS(=O)(=O)c2cccc(Cl)c2)c2c(-c3cn[nH]c3)c(C)sc2n1` [Example 63, 3-Chloro-N-[2,6-dimethyl-3-(1H-pyrazol-4-yl)thieno[2,3-b]pyridin-4-yl]benzenesulfonamide], the IC50 was below 100 µM. The value for `COc1cncc(-c2c(C)sc3nc(C)cc(NS(=O)(=O)c4cccc(Cl)c4)c23)c1` [Example 67, 3-Chloro-N-{2,6-dimethyl-3-[5-(methyloxy)-3-pyridinyl]thieno[2,3-b]pyridin-4-yl}benzenesulfonamide] was below 100 µM; that for `Cc1cccc(-c2c(C)sc3nc(C)cc(NS(=O)(=O)c4cccc(Cl)c4)c23)c1` [Example 69, 3-Chloro-N-[2,6-dimethyl-3-(3-methylphenyl)thieno[2,3-b]pyridin-4-yl]benzenesulfonamide] was below 100 µM. The value for `Cc1cc(NS(=O)(=O)c2cccc(Cl)c2)c2c(-c3cccc(CNC(=O)OC(C)(C)C)c3)c(C)sc2n1` [Example 70, 1,1-Dimethylethyl {[3-(4-{[(3-chlorophenyl)sulfonyl]amino}-2,6-dimethylthieno[2,3-b]pyridin-3-yl)phenyl]methyl}carbamate] was below 100 µM.
